≈ marks a conversion by molar mass, not a printed value. Where “and” joins values, the source holds several entries; their conditions need not be identical. Equal values may be shown once. Entries after “also recorded” stand apart in the source; their conditions may differ.
Columns and labels:
Assay type in all cases: cell-based, Escherichia coli
[1] = test system: EKO-35 porinated strain expressing acrD; experiment: Checkerboard synergy (FICI), porinated strain; details: for interaction of PAβN in combination with the labelled antibiotic (FICI): acrD expressed in the porinated strain
Procedure, shortened: (§1)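 Interaction of PAβN or NMP with antibiotics is scored as FICI = CA/MICA + CB/MICB, from MICs (no growth, OD600) in MHB II checkerboard microdilution following CLSI. Solvent controls accompany every plate.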

[2] = test system: EKO-35 strains with integrated RND tripartite efflux pumps (AcrB, AcrEF, AcrD, and MdtEF) with pGDP2:emrE or empty pGDP-2; experiment: Efflux pump interplay MIC profiling (pGDP2:emrE); details: for MIC / Fold Change from EKO-35: Pore −
[3] = test system: EKO-35-Pore strains with integrated AcrB, AcrEF, AcrD, MdtEF with pGDP2:emrE or empty pGDP-2; experiment: Efflux pump interplay MIC profiling (pGDP2:emrE), porinated; details: for MIC / Fold Change from EKO-35: Pore +
Description: This plasmid enables single-copy genomic integration of a selected gene through integration into the nonessential araC gene within the arabinose operon (Cox, G. et al., 2022). All E. coli genes were amplified from E. coli BW25113 genomic DNA, and mexCD was amplified from P. aeruginosa PAO1, using a high-fidelity polymerase, followed by ligation into pINT2. Successful clones were verified using PCR (Primers: pLac-Fwd/pINT-Rev, Table 4) and confirmed via Sanger sequencing at The Centre for Applied Genomics (TCAG) (The Hospital for Sick Children) and the AAC (University of Guelph). For the interplay studies, this process was repeated using the pGDP2 plasmid (Cox, G. et al., 2022).
To enable comparison between efflux production in different genetic backgrounds, each efflux pump-encoding gene was also integrated into the genome of the wild-type BW25113 strain, the single gene deletion mutant from the Keio Collection, and EKO-35. Strains of interest were propagated on LB agar at 37° C. Cell inoculum was prepared using the colony resuspension method and applied to a 96-well well plate (VWR) in technical duplicate, and the minimum inhibitory concentrations were determined according to Clinical & Laboratory Standards Institute (CLSI) protocols in MHB II (Patel J. B. et al, 2015). The plates were incubated for 18 h (Multitron Shaker, Infors HT) at 37° C. with aeration at 900 rpm. The plates were equilibrated to room temperature before the OD600 nm was measured using a BioTek Synergy H1 microplate reader. For interplay profiling, blank subtracted OD600 nm values >0.1 were considered to represent growth.
To investigate, the EKO-35-Pore strains were profiled using the same approach.

[4] = test system: EKO-35 porinated strain expressing acrF (AcrEF); experiment: Checkerboard synergy (FICI), porinated strain; details: for PABN MICa Alone: PAβN alone, one value per checkerboard
Procedure, shortened: as §1

[5] = test system: EKO-35-Pore strains producing other efflux pumps; experiment: Checkerboard synergy (FICI), porinated strain
Procedure, shortened: as §1

[6] = EKO-35 acrD Pore, PAβN + antibiotic
[7] = EKO-35 acrD Pore, antibiotic alone (PAβN checkerboard)
[8] = EKO-35 acrD Pore, antibiotic in combination with PAβN
[9] = EKO-35 acrD Pore, NMP + antibiotic
[10] = strain EKO-35 acrD Pore, NMP + antibiotic
[11] = strain EKO-35 acrD Pore, antibiotic alone
[12] = strain EKO-35 acrD Pore, antibiotic in combination with NMP
[13] = EKO-35 acrEF Pore, NMP + antibiotic
[14] = EKO-35 acrEF Pore, PAβN + antibiotic
[15] = EKO-35 acrEF Pore, antibiotic alone (PAβN checkerboard)
[16] = EKO-35 acrEF Pore, antibiotic in combination with PAβN
[17] = strain EKO-35 acrEF Pore, NMP + antibiotic
[18] = strain EKO-35 acrEF Pore, antibiotic alone
[19] = strain EKO-35 acrEF Pore, antibiotic in combination with NMP
[20] = EKO-35 mdtEF Pore, NMP + antibiotic
[21] = EKO-35 mdtEF Pore, PAβN + antibiotic
[22] = strain EKO-35 mdtEF Pore, NMP + antibiotic

CO[C@@H]1[C@@H](OC(N)=O)[C@@H](O)[C@H](Oc2ccc3c(O)c(NC(=O)c4ccc(O)c(CC=C(C)C)c4)c(=O)oc3c2C)OC1(C)C [novobiocin]
Effect [1, 6]: Additive | FICI [1, 6]: 0.563 | MICb Alone [1, 7]: 16 µg/mL | MICb Combined [1, 8]: 1 µg/mL | interaction of PAβN in combination with the labelled antibiotic (FICI) [1]: synergy was lost | interplay of EmrE with tripartite efflux pumps on resistance ([2]; EKO-35, AcrB, AcrEF, AcrD, MdtEF combined with pEmrE): Interplay was not observed; also recorded: did not observe synergy | extrusion by EmrE ([2]; negative controls): not extruded by EmrE | MIC ([2]; strain EKO-35): 0.781 mg/L (≈ 1.27 µM) | Fold Change from EKO-35 ([2]; strain EKO-35 pEmrE): 1 | MIC ([2]; strain EKO-35 pEmrE): 0.781 mg/L (≈ 1.27 µM) | Fold Change from EKO-35 ([2]; strain acrB pEmrE): 512 | MIC ([2]; strain acrB pEmrE): 400 mg/L (≈ 653 µM) | Fold Change from EKO-35 ([2]; strain acrB): 512 | MIC ([2]; strain acrB): 400 mg/L (≈ 653 µM) | Fold Change from EKO-35 ([2]; strain acrD pEmrE): 64 | MIC ([2]; strain acrD pEmrE): 50 mg/L (≈ 81.6 µM) | Fold Change from EKO-35 ([2]; strain acrD): 128 | MIC ([2]; strain acrD): 100 mg/L (≈ 163 µM) | Fold Change from EKO-35 ([2]; strain acrEF pEmrE): 64 | MIC ([2]; strain acrEF pEmrE): 50 mg/L (≈ 81.6 µM) | Fold Change from EKO-35 ([2]; strain acrEF): 128 | MIC ([2]; strain acrEF): 100 mg/L (≈ 163 µM) | Fold Change from EKO-35 ([2]; strain mdtEF pEmrE): 8 | MIC ([2]; strain mdtEF pEmrE): 6.25 mg/L (≈ 10.2 µM) | Fold Change from EKO-35 ([2]; strain mdtEF): 16 | MIC ([2]; strain mdtEF): 12.5 mg/L (≈ 20.4 µM) | interplay of EmrE with tripartite efflux pumps on resistance ([3]; EKO-35-Pore, AcrB, AcrEF, AcrD, MdtEF combined with pEmrE): Interplay was not observed | MIC ([3]; strain EKO-35): 0.391 mg/L | Fold Change from EKO-35 ([3]; strain EKO-35 pEmrE): 1 | MIC ([3]; strain EKO-35 pEmrE): 0.391 mg/L | Fold Change from EKO-35 ([3]; strain acrB pEmrE): 256 | MIC ([3]; strain acrB pEmrE): 100 mg/L | Fold Change from EKO-35 ([3]; strain acrB): 256 | MIC ([3]; strain acrB): 100 mg/L | Fold Change from EKO-35 ([3]; strain acrD pEmrE): 16 | Fold Change from EKO-35 ([3]; strain acrD): 64 | MIC ([3]; strain acrD): 25 mg/L | Fold Change from EKO-35 ([3]; strain acrEF pEmrE): 32 | Fold Change from EKO-35 ([3]; strain acrEF): 32 | Fold Change from EKO-35 ([3]; strain mdtEF pEmrE): 4 | MIC ([3]; strain mdtEF pEmrE): 1.56 mg/L | Fold Change from EKO-35 ([3]; strain mdtEF): 8 | MIC ([3]; strain mdtEF): 3.13 mg/L

CC(=O)O[C@H]1C[C@@]2(C)[C@@H](C[C@@H](O)[C@H]3[C@@]4(C)CC[C@@H](O)[C@@H](C)[C@@H]4CC[C@@]32C)/C1=C(\CCC=C(C)C)C(=O)O [fusidic acid]
FICI [1, 9]: 1.000 | Effect [1, 6]: Synergistic | FICI [1, 6]: 0.250 | MICb Alone [1, 7]: 64 µg/mL | MICb Combined [1, 8]: 8 µg/mL | Effect [1, 10]: — (indifferent (FICI >1.0)) | FICI [1, 10]: 1.000 | MICb Alone [1, 11]: 64 µg/mL | MICb Combined [1, 12]: 32 µg/mL | Effect [4, 13]: Additive | Effect [4, 14]: Synergistic | FICI [4, 14]: 0.313 | MICb Alone [4, 15]: 4 µg/mL | MICb Combined [4, 16]: 1 µg/mL | Effect [4, 17]: Additive (additive (FICI >0.5-1.0)) | MICb Alone [4, 18]: 2 µg/mL | MICb Combined [4, 19]: 1 µg/mL | Effect [5, 20]: Additive | FICI [5, 20]: 0.750 | Effect [5, 21]: Synergistic | FICI [5, 21]: 0.250 | MICb Alone ([5]; EKO-35 mdtEF Pore, antibiotic alone (PAβN checkerboard)): 16 µg/mL | MICb Combined ([5]; EKO-35 mdtEF Pore, antibiotic in combination with PAβN): 2 µg/mL | Effect [5, 22]: Additive (additive (FICI >0.5-1.0)) | FICI [5, 22]: 0.750 | MICb Alone ([5]; strain EKO-35 mdtEF Pore, antibiotic alone): 8 µg/mL | MICb Combined ([5]; strain EKO-35 mdtEF Pore, antibiotic in combination with NMP): 2 µg/mL

phenylalanine-arginine-β-naphthylamide [PAβN]
PABN MICa Alone ([1]; EKO-35 acrD Pore, PAβN alone, one value per checkerboard, listed as PABN): 32 µg/mL and 64 µg/mL | PABN MICa Combined ([1]; EKO-35 acrD Pore, with Fusidic Acid): 8 µg/mL | PABN MICa Combined ([1]; EKO-35 acrD Pore, with Novobiocin): 16 µg/mL | PABN MICa Combined ([1]; EKO-35 acrD Pore, with Oxacillin): 16 µg/mL | PABN MICa Alone ([4]; EKO-35 acrEF Pore): 64 µg/mL | PABN MICa Alone ([4]; EKO-35 acrEF Pore, listed as PABN): 128 µg/mL | PABN MICa Combined ([4]; EKO-35 acrEF Pore, with Ciprofloxacin): 16 µg/mL | PABN MICa Combined ([4]; EKO-35 acrEF Pore, with Erythromycin): 16 µg/mL | PABN MICa Combined ([4]; EKO-35 acrEF Pore, with Fusidic Acid): 8 µg/mL | PABN MICa Combined ([4]; EKO-35 acrEF Pore, with Oxacillin): 32 µg/mL | PABN MICa Alone ([5]; EKO-35 mdtEF Pore, PAβN alone, one value per checkerboard): 64 µg/mL | PABN MICa Combined ([5]; EKO-35 mdtEF Pore, with Erythromycin): 32 µg/mL | PABN MICa Combined ([5]; EKO-35 mdtEF Pore, with Fusidic Acid): 8 µg/mL

Cc1onc(-c2ccccc2)c1C(=O)N[C@@H]1C(=O)N2[C@@H]1SC(C)(C)[C@@H]2C(=O)O [oxacillin]
Effect [1, 9]: Additive | FICI [1, 9]: 0.750 | Effect [1, 6]: Synergistic | FICI [1, 6]: 0.500 | MICb Alone [1, 7]: 4 µg/mL | MICb Combined [1, 8]: 1 µg/mL | interaction of PAβN in combination with the labelled antibiotic (FICI) [1]: still observed | Effect [1, 10]: Additive (additive (FICI >0.5-1.0)) | FICI [1, 10]: 0.750 | MICb Alone [1, 11]: 2 µg/mL | MICb Combined [1, 12]: 0.5 µg/mL | FICI [4, 13]: 1.000 | Effect [4, 14]: Synergistic | FICI [4, 14]: 0.500 | MICb Alone [4, 15]: 4 µg/mL | MICb Combined [4, 16]: 1 µg/mL | Effect [4, 17]: — (indifferent (FICI >1.0)) | FICI [4, 17]: 1.000 | MICb Alone [4, 18]: 2 µg/mL | MICb Combined [4, 19]: 1 µg/mL
